From patent US20050119301A1, “Treatment of restenosis” (priority 2001, published 2005)
“Also recorded” adds a separate entry of the source. Blank lines part the entries; values can stand above or below the compound they belong to.

Assays:
[1] = test system: Vascular smooth muscle cells (VSMC) derived from internal mammary artery (IMA); experiment: Serum-induced VSMC proliferation, [3H]-thymidine incorporation; format: cell-based, human; conditions: for proliferation of IMA-derived VSMC at high concentrations (in words) / proliferation of IMA-derived VSMC (in words): 2.5% FBS; for proliferation of IMA-derived VSMC (in words): 0.01-100 mM tested, Cpd. 7 effect from 0.1 mM up to 1 mM
Procedure: Vascular smooth muscle cells (VSMC) derived from internal mammary artery (IMA) were cultured in 10% FBS-DMEM. Cells were grown to confluence in LG (glucose 5 mM)-medium then trypsinized, diluted with 10% FBS-LG medium to about 10,000 cells/ml and 1 ml of suspension was) aliquoted into four 24-well plates. Cells were then allowed to grow for 2 days to visual confluence. LG serum-free media was changed for 48 h to synchronize most cells at Go/G1.
After 24 h of serum-free medium, cells were treated with the compounds (Cpd. 5, Cpd. 7, Cpd. 8 or Cpd. 12) for 4 h and FBS was added (final concentration 2.5%) over night (18-20 hours). 4 wells were allocated for each treatment:
(§1) Cell proliferation was induced by a variety of growth factors such as serum and platelet derived growth factor (PDGF).
(§2) Media was changed to LG serum-free DMEM and cells were treated with [^3H]-thymidine at 1 μCi/well for 3 hours. Cells were washed twice with ice cold Dulbecco's PBS. Next, ice cold 0.2M HClO4 (1 ml/well) was added and cells were incubated on ice for 30 min. Cells were then washed three times with 0.5 ml/well of ice cold 0.2M HClO4. Media (0.5 ml/well of 0.2 M NaOH) was replaced and cells were incubate at 37° C. After 1 hour, cells were treated with acetic acid (6%, 0.2 ml/well), transferred to scintillation vials with 3 ml scintillation liquid (Instagel) and counted for 2 min per vial.

[2] = test system: E-selectin; experiment: Inhibition of E-selectin expression in activated HUVEC; format: cell-based, human; conditions: pre-incubated 2 or 18 hours prior to TNF stimulation; Cpd. 8 especially at 10 μg/ml, Cpd. 12 especially at 1 and 10 μg/ml
Procedure: The ability of isoflavone compounds and derivatives to inhibit the expression of E-selectin was measured by the protocol set out in Litwin et al. (1997) and is incorporated herein by reference.
FIG. 18 provides comparative data on the ability of a number of isoflavone compounds to inhibit the expression of E-selectin conducted in accordance with the method of Litwin et al. The interaction of isoflavone metabolite Cpds. 8 and 12 on human umbilical vein endothelial cells, activated by […], was measured against the concentration of the compound. The cells were pre-incubated for either 2 or 18 hours prior to TNF stimulation. In comparison with a DMSO control, isoflavone Cpd. […] Isoflavone Cpd.

[3] = test system: C57/B16 mice; experiment: Mouse model of neointimal hyperplasia after mechanical endothelial damage; format: in vivo; conditions: for effect on neointimal proliferation (in words) / neointimal proliferation, intimal thickness: 4 weeks after surgery; for neointimal proliferation, intimal thickness: in chow, surgery only 50±5%, no surgery 5±1%
Description: The key feature of atherosclerosis in humans is vascular smooth muscle cell (VSMC) migration from the arterial media to the intima, followed by proliferation within the intima. The animal model of atherosclerosis used in this experiment aimed to induce VSMC migration and neointimal proliferation by mechanical damage to the endothelium. A probe was introduced into the femoral artery of the mouse and was passed through the iliac artery to the bifurcation of the aorta. The probe was then withdrawn and the femoral artery ligated to prevent haemorrhage. Colateral circulation prevents any limb-associated ischaemia. Neointimal proliferation occurred in the iliac artery over the following 4 weeks.
Proliferation was enhanced by feeding the mouse cholesterol during this time (commencing one week before surgery). At four weeks, the mice were sacrificed and the iliac vessels on both sides are harvested (the non-operated vessel was used as a control). Neointimal proliferation is expressed as the ratio of the intimal area to the intimal plus media area.
Atherosclerosis was induced in the femoral artery of each mouse by mechanically removing the endothelium using a probe. The ability of isoflavone compounds to inhibit the atherosclerotic response was assessed by comparing treatment and placebo groups. C57/B16 mice (8-10 week old male) were anaesthetized, and the right femoral artery was de-endothilialized using a dissection microscope. These mice were also fed with a 2% cholesterol diet to enhance the progression of the disease. The mice were sacrificed at week 4. Their treated (right) and control (left) arteries were both collected and fixed in formalin for histopathological evaluation.
The mice were fed a diet of 2% cholesterol mixed with normal mouse chow for a week prior to surgery. The treatment groups were fed the chow with Cpd. 5 or Cpd. 12 or Cpds. 5+12. Mice were anaesthetised with Avertin, and angioplasty of the femoral artery was performed. After surgery, the mice were moved onto a warm mat in a quiet, darkened area and their recovery closely monitored. They were housed in sterile cages with sterile bedding to avoid infection. The mice continued a diet of cholesterol mixed with normal mouse chow for the next 4 weeks. The mice were euthanased at 4 weeks postsurgery. Their femoral arteries were collected for pathological examination. Sections were evaluated by image analysis to determine the area of the various sections of the arterial wall, and the numbers of cells in each area. The primary parameter being evaluated was the increase in the intimal area, expressed as the ratio of the area of the intima versus the area of the intima plus media. The interval sections (every 50 μm, or every ten sections) were mounted and stained with H & E. The cross-sectional areas of the endothelium, intima and media were evaluated, using image analysis.

[4] = test system: IMA-derived human VSMC primed with PDGF BB; experiment: PDGF BB-induced VSMC DNA synthesis, proliferation and cell number; format: cell-based; conditions: for proliferation of IMA cells primed with PDGF BB (in words): Cpd. 7 at concentrations as low as 0.1 nM; for effect of ER antagonist ICI 182780 on the inhibitory effect: ICI 182780 100 nmol/L
Procedure: as §1, §2
The effect of Cpd. 5 and Cpd. 7 was tested further in IMA-derived human VSMC primed with PDGF BB instead of serum. […] (FIG. 12). This effect was equivalent to that observed with estradiol. Cpd.
In further experiments Cpd. […] 7 at 100 nmol/L), indicating ER-mediation. […] 7 (1-100 nmol/L).

[5] = test system: Egr-1; experiment: Early growth response gene protein in VSMC, Western blotting; format: cell-based; conditions: human VSMC
Procedure: (§3) To further examine the signalling pathway mediating the effect of this phytoestrogen in VSMC, the effect of Cpd. 7 on mitogen-activated protein (MAP) kinases (Erk, JUNK, p38) was determined by immunoprecipitation analysis and on early growth response genes (Egr-1, Sp-1) by Western blotting. […] 7 in a dose-dependent manner, while JUNK and p38 activity were not affected by either PDGF BB or Cpd. 7, though the cells strongly expressed both proteins as well as Erk. Egr-1 or Sp-1 proteins were not altered by either PDGF-BB or Cpd. 7.

[6] = test system: Sp-1; experiment: as above; format: cell-based; conditions: human VSMC
Procedure: as §3

[7] = test system: Erk; experiment: PDGF BB-induced MAP kinase activation in VSMC, immunoprecipitation analysis; format: cell-based; conditions: human VSMC
Procedure: as §3

[8] = test system: p38; experiment: MAP kinase activity in VSMC, immunoprecipitation analysis; format: cell-based; conditions: human VSMC
Procedure: as §3

[9] = test system: JUNK; experiment: as above; format: cell-based; conditions: human VSMC
Procedure: as §3

SMILES: Oc1ccc(C2COc3cc(O)ccc3C2O)cc1 (centres unmarked) [Cpd. 8]
proliferation of IMA-derived VSMC at high concentrations (in words) ([1]; 10 mM and 100 mM): caused a significant increase in proliferation
inhibition of E-selectin expression (in words) [2]: very good inhibition of E-selectin expression

SMILES: O=C1c2ccc(O)cc2OCC1c1ccc(O)cc1 (centres unmarked) [Cpd. 5]
reduction of neointimal area ([3]; 4 weeks): approximately 50%
effect on neointimal proliferation (in words) [3]: significantly reduced
neointimal proliferation, intimal thickness [3]: 30±6%
proliferation of IMA cells primed with PDGF BB (in words) [4]: no observed effect on cellular proliferation
proliferation of IMA-derived VSMC (in words) [1]: relatively inactive

p38 activity [8]: not affected
JUNK activity [9]: not affected
SMILES: Oc1ccc(C2COc3cc(O)ccc3C2O)cc1 (centres unmarked) [Cpd. 7]
Egr-1 protein [5]: not altered
Sp-1 protein [6]: not altered
PDGF BB-induced Erk activation [7]: significantly inhibited by Cpd. 7 in a dose-dependent manner
PDGF BB-induced increases in cell number ([4]; 1-100 nmol/L): partly but significantly reduced
proliferation of IMA cells primed with PDGF BB (in words) [4]: inhibited proliferation
inhibition at 0.001 µM ([4]; Homo sapiens, VSMC, 3 h, 1 nmol/L, read-out: inhibition of PDGF BB-induced DNA synthesis ([3H]-thymidine incorporation)): 10%
inhibition at 0.01 µM ([4]; Homo sapiens, VSMC, 3 h, 10 nmol/L, read-out: inhibition of PDGF BB-induced DNA synthesis ([3H]-thymidine incorporation)): 17%
inhibition at 0.1 µM ([4]; Homo sapiens, VSMC, 3 h, 100 nmol/L, read-out: inhibition of PDGF BB-induced DNA synthesis ([3H]-thymidine incorporation)): 17%
effect of ER antagonist ICI 182780 on the inhibitory effect ([4]; compound at 100 nmol/L): partly abolished
effect of ER antagonist ICI 182780 on the inhibitory effect ([4]; compound at 1-10 nmol/L): completely abolished
proliferation of IMA-derived VSMC (in words) [1]: significantly inhibited proliferation
proliferation of IMA-derived VSMC at high concentrations (in words) ([1]; 10 mM and 100 mM): relative increase in proliferation

SMILES: Oc1ccc(C2=Cc3ccc(O)cc3OC2)cc1 [Cpd. 12]
effect on neointimal proliferation (in words) [3]: no detectable effect; also recorded: no appreciable effect on neointimal proliferation
neointimal proliferation, intimal thickness [3]: 50±29%
cell damage ([1]; 10 mM and 100 mM): caused significant cell damage
proliferation of IMA-derived VSMC (in words) [1]: did not appear to inhibit cellular proliferation
inhibition of E-selectin expression (in words) [2]: excellent inhibition of E-selectin expression
